The test concerns the target Receptor tyrosine-protein kinase erbB-2 (Homo sapiens, UniProt P04626). Kind of test: BT474 Cellular Assay (HER2 Inhibition). On the procedure: Inhibition of phosphor HER2 was determined by enzyme-linked immunosorbent assay (ELISA) in BT474 cells. BT474 cell line was purchased from ATCC (catalog number HTB-20). Human Phospho-ErbB2 ELISA kit was purchased from R&D systems (catalog number DYC1768).

Molecules are shown by their SMILES.

Broadly, the IC50 is the midpoint of a concentration-inhibition curve. Higher therefore signals lower potency.

Chain of Receptor tyrosine-protein kinase erbB-2 (P04626 whole entry): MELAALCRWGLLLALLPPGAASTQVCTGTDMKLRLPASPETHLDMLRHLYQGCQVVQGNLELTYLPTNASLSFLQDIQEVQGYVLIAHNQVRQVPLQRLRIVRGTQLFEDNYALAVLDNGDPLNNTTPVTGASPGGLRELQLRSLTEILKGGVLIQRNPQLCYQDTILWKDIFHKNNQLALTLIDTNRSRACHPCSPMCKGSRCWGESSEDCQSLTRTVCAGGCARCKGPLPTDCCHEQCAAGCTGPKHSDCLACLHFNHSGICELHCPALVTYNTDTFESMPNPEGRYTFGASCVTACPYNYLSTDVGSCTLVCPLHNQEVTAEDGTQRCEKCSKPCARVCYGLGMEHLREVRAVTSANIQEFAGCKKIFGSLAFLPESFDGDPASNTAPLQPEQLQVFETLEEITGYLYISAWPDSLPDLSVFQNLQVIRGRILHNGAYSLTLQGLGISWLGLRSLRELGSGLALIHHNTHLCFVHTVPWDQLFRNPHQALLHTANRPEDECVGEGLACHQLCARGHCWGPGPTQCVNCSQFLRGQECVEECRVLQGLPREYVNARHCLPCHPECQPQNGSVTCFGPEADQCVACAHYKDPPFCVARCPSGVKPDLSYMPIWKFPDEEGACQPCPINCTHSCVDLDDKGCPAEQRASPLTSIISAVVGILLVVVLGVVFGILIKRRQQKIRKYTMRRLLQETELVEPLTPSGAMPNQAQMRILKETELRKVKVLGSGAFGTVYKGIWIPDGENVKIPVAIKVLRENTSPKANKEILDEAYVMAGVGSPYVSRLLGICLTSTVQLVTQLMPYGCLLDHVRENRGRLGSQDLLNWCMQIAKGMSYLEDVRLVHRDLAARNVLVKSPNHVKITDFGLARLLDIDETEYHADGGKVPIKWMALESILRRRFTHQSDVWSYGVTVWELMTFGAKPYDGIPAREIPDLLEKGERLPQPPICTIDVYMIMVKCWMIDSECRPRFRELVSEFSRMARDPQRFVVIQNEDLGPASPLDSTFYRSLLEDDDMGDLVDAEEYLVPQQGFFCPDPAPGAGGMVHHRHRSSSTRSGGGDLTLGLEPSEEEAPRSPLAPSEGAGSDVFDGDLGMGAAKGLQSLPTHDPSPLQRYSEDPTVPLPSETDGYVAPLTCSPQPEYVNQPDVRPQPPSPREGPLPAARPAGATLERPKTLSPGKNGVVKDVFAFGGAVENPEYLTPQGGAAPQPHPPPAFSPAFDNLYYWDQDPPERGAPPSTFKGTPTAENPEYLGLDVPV

`Cc1cc(Nc2ncnc3ccc(OC(F)(F)F)c(O[C@H]4CCN(C)CC4(F)F)c23)ccc1Oc1cc2ncnn2cn1` [US11723908, Example 73] had an IC50 of 145 nM.

The values above are taken from BindingDB's records for patent US11723908 (Suzhou Zanrong Pharma, 2023).
